Tests used:
HSPCs = assay: Bone marrow HSPC proliferation by EdU incorporation and flow cytometry; assay type: in vivo, mouse
Description: Mice were then sacrificed at the indicated times (0, 12, 24, 36, or 48 hours following compound administration), and bone marrow was harvested (n=3 mice per time point), as previously described (Johnson et al. J. Clin. Invest. (2010) 120(7), 2528-2536). Four hours before the bone marrow was harvested, mice were treated with 100 μg of EdU by intraperitoneal injection (Invitrogen). Bone marrow mononuclear cells were harvested and immunophenotyped using previously described methods and percent EdU positive cells were then determined (Johnson et al. J. Clin. Invest. (2010) 120(7), 2528-2536). In brief, HSPCs were identified by expression of lineage markers (Lin−), ScaI (S+), and c-Kit (K+).
Four hours before animals were sacrificed and the bone marrow was harvested, mice were treated with 100 μg of EdU by intraperitoneal injection. Three mice per group were sacrificed at 12 hours and the remaining three animals per group were sacrificed at 24 hours. Results are shown in FIG. 6A as the ratio of EdU positive cells for treated animals at 12 or 24 hour time points compared to control.
Further experiments were completed with Compound T examining dose response and longer periods of compound treatment. […] […].
Both compounds were administered at 150 mg/kg by oral gavage. One hour prior to harvesting bone marrow, EdU was IP injected to label cycling cells. Bone marrow was harvested at 12, 24, 36, and 48 hours after compound treatment and the percentage of EdU positive HSPC cells was determined at each time point.

[1] = tested on: tHS68 cells (CDK4/6-dependent cell line); assay: Cell cycle arrest (propidium iodide), tHS68; assay type: cell-based; conditions: 300 nM for 24 hours
Source text: (§1) To test the ability of Cdk4/6 inhibitors to induce a clean G1-arrest, a cell based screening method was used consisting of two Cdk4/6-dependent cell lines (tHS68 and WM2664; Rb-positive) and one Cdk4/6-independent (A2058; Rb-negative) cell line. […] At the conclusion of the experiment, cells were harvested, fixed, and stained with propidium iodide (a DNA intercalator), which fluoresces strongly red (emission maximum 637 nm) when excited by 488 nm light. Samples were run on Dako Cyan flow cytometer and >10,000 events were collected for each sample. Data were analyzed using FlowJo 2.2 software developed by TreeStar, Inc.

[2] = tested on: WM2664 cells (CDK4/6-dependent cell line); assay: Cell cycle arrest (propidium iodide), WM2664; assay type: cell-based; conditions: 300 nM for 24 hours
Source text: as §1

[3] = tested on: RB-negative SCLC cell lines (H69, H82, H209, H345, NCI417, SHP-77); assay: EdU proliferation, RB-negative SCLC cell lines; assay type: cell-based, human; conditions: 24 hours treatment
Description: The effect of Cdk4/6 inhibition on proliferation was measured by EdU incorporation. An RB-intact, Cdk4/6-dependent cell line (WM2664 or tHS68) and a panel of RB-negative SCLC cell lines (H69, H82, H209, H345, NCI417, or SHP-77) were analyzed for growth inhibition by the various CDK4/6 inhibitors.

[4] = tested on: whole bone marrow, HSPC and differentiated hematopoietic cells; assay: EdU incorporation in mouse hematopoietic cell lineages; assay type: in vivo; conditions: 150 mg/kg oral gavage; for inhibition at 150 mg/kg: Mus musculus
Description: Ten-hours later, all mice were given a single i.p. injection of 100 mcg EdU (5-ethynyl-2′-deoxyuridine) to label cells in S-phase of the cell cycle. All treated mice were euthanized 2 hours after EdU injection, bone marrow cells were harvested and processed for flow cytometric analysis of EdU-incorporation (FIG. 13).

blood cell counts = assay: 5FU-induced myelosuppression, single dose; assay type: in vivo, mouse; conditions: 150 mg/kg oral, 30 minutes before 5FU 150 mg/kg i.p.
Description: Complete blood cell counts were measured every two days starting on day six.

[5] = tested on: human renal proximal tubule cells; assay: Cell cycle of renal proximal tubule cells with etoposide or cisplatin; assay type: cell-based; conditions: 10-1000 nM in combination with etoposide or cisplatin
Description: The ability of Cdk4/6 inhibitors to protect human renal proximal tubule cells from chemotherapy induced DNA damage was analyzed using etoposide and cisplatin. […] At the conclusion of the experiment, cells were harvested, fixed, and stained with propidium iodide (a DNA intercalator), which fluoresces strongly red (emission maximum 637 nm) when excited by 488 nm light. Samples were run on Dako Cyan flow cytometer.

Question: What does the source list for `CN1CCN(c2ccc(Nc3ncc4cc5n(c4n3)C3(CCCCC3)CNC5=O)nc2)CC1` [T, 2′-((5-(4-methylpiperazin-1-yl)pyridin-2-yl)amino)-7′,8′-dihydro-6′H-spiro[cyclohexane-1,9′-pyrazino[1′,2′:1,5]pyrrolo[2,3-d]pyrimidin]-6′-one]?
Answer: EdU incorporation into HSPCs compared to control (HSPCs; 150 mg/kg oral gavage, 12 and 24 hours, FIG. 6A): reduction in EdU incorporation at 12 hours which was starting to return to normal at 24 hours; time by which proliferation of HSPCs resumes (HSPCs; single 150 mg/kg oral dose, FIG. 7): ≤ 24 h; S-phase peak [1]: causes a loss of the S-phase peak; S-phase peak [2]: causes a loss of the S-phase peak; growth (cells in S-phase by EdU) [3]: does not affect the growth; reduction in EdU+ cell frequencies ([4]; B cell progenitors): > 80%; reduction in EdU+ cell frequency ([4]; CMP, GMP, MEP and CLP): 76-92%; reduction in EdU+ cell frequency ([4]; Mac1+G1+ myeloid cells): 46%; reduction in EdU+ cell frequencies ([4]; T cell progenitors): > 99%; reduction in EdU+ cell frequency ([4]; Ter119+ erythroid cells): 58%; reduction of EdU+ cell frequency ([4]; unfractionated whole bone marrow cells): ~70%; inhibition at 150 mg/kg ([4]; Hematopoietic stem cell, hematopoietic stem cells (HSC)): 74%; inhibition at 150 mg/kg ([4]; multipotent progenitors (MPP)): 90%; recovery of blood cell lineages after 5FU (blood cell counts): more rapid recovery; cell cycle distribution [5]: decrease in the percentage of S-phase cells, with a corresponding rise in the percentage of cells in the G0-G1 phase

Source: patent publication US9487530B2, “Transient protection of normal cells during chemotherapy” (G1 Therapeutics, Inc., priority 2013, dated 2016)
